Measured values: patent US7998474B2, “Methods for treating an inflammatory disease of the bowel” (Rowett Research Institute, priority 2001, dated 2011)
Marks after values point to notes of the source that are not given here.

Experiments:
[1] = tested on: Caco-2 cells; assay: Inflammatory cytokine gene expression in Caco-2 cells exposed to S. enteritidis (macroarray, Northern, real-time PCR); format: cell-based
[2] = tested on: PPARγ; assay: Northern hybridisation of PPAR mRNA in Caco-2 cells; format: cell-based; conditions: 2 hours
[3] = tested on: RelA [NF-κB p65]; assay: Immunofluorescence localisation of RelA in Caco-2 cells; format: cell-based
[4] = tested on: PPARγ; assay: Cellular distribution of PPARγ in Caco-2 cells (immunocytochemistry, western blot)
[5] = tested on: RelA [NF-κB p65]; assay: Supershift EMSA on Caco-2 nuclear extracts; format: cell-based; conditions: S. enteritidis, 2 hours, heat inactivation 70° C. 15 minutes
Experimental: Where indicated B. thetaiotaomicron was heat inactivated at 70° C. for 15 minutes prior to its addition to the Caco-2 cells.
Nuclear extracts were incubated with single stranded ^32P-labeled oligonucleotide probes containing consensus binding sequences for NF-κB (SEQ ID NO:1 5′-[…] -3′) or AP-1 (SEQ ID NO: 2 5′-[…] -3′), separated by electrophoresis and visualized by autoradiography. EMSA supershifts were performed using specific NF-κB subunit antibodies. Effects of B. thetaiotaomicron on NFκB and AP-1 signaling were determined by EMSA, western blotting (protein and phosphoprotein), promoter-specific reporter analysis and target gene expression (eg. fos and jun).

[6] = tested on: NF-κB; assay: NF-κB luciferase reporter in transfected Caco-2 cells; format: cell-based; conditions: bacteria 2 hours, luciferase after 8 hours
Experimental: C) Caco-2 cells were transfected with PPARγ DN and a NF-κB luciferase reporter construct (DN), and compared with control cells transfected with NF-κB luciferase reporter alone (MOCK).
Double transfection studies with PPARγ DN and an NF-κB luciferase reporter (gifted by Dr Israel, Pasteur Institute, Paris, France) were performed. […] To avoid this we stimulated the cells for 2 hours and then removed the bacteria by washing and determined luciferase protein production after 8 hours. We found both in the control and PPARγ DN transfected cells, that S. enteritidis induced NF-κB activation and luciferase protein synthesis (P<0.001) (FIG. 5C). In the PPARγ wild type (NT) transfected cells (luciferase alone) this response was attenuated by B. thetaiotaomicron (P<0.028), but not in dominant negative (DN) transfected cells (FIG. 5C). Similarly, there was modification of the cellular distribution of RelA, as determined using immunocytochemistry and laser scanning confocal microscopy (LSCM), in cells transfected with green fluorescent protein (GFP) with and without PPARγ DN. In the control cells (GFP alone) the distribution of RelA was predominantly cytosolic as described above for non-transfected cells (FIG. 5D (insert B,C)). In PPARγ DN transfected cells, the distribution was irregular and RelA localised to both the cytosolic and nuclear compartments (FIG. 5D, (insert D, E)).

[7] = tested on: p38 MAP kinase; assay: Western blot of MAP kinase phosphorylation in Caco-2 cells; format: cell-based; conditions: co-incubation
[8] = tested on: RelA; assay: Immunoprecipitation of RelA / PPARγ from Caco-2 cells; format: cell-based
From the text: Immuno-precipitates were resolved using SDS-PAGE. Western blots were developed using a monoclonal anti-RelA [NF-κB p65], anti-PPARγ antibodies and anti-HDAC3 (Santa Cruz).
A) Immuno-detection RelA. Caco-2 cells prepared following standard culture protocol, treatment groups (1-4). Immunoprecipitates prepared using anti-PPARγ sepharose conjugate.

[9] = Viability of the bacterium in jelly; conditions: commercial jelly prepared under anaerobic conditions, set at 4° C.
Experimental: Ten ml of B. thetaiotaomicron culture was centrifuged (2000 g, 12 min), the pellet was washed with 0.05M phosphate buffered saline pH 7.2 and then resuspended in commercial jelly [10 ml, 37° C., prepared under anaerobic conditions]. The jelly was poured into a sterile petri dish under CO2 and allowed to set at 4° C. Approximately 1 hour later, the jelly was cut into weighed amounts (0.5 g, ˜10^8 CFU B. thetaiotaomicron) and fed to the rats. The bacterium remained viable for at least 6 hours under these conditions. However, usually all jelly was eaten within a few minutes of being placed in the cage.

[10] = Body weight, tissue weights and composition, faecal output in rats; format: in vivo, Hooded Lister rats
From the text: Twenty-four male specific pathogen-free Hooded Lister rats (40 g), bred in the small animal unit of the Rowett Research Institute, were weaned at 19 days and immediately transferred to a Class II facility. They were housed individually in metabolism cages (Techniplast, Kettering, UK) within flexi-film isolators (Moredun, Animal Health, Penicuik, UK) for the duration of the study (21 days). Nesting tunnels were provided in each metabolism cage and cages were arranged within the isolators to allow sight of but not contact with other animals. Sterile distilled water was available at all times. Rats were weighed daily and faeces was collected throughout the study.
Data are the means ISD (n=3). The rats were initially given free access to a high quality semi-synthetic (100 g protein kg^−1) lactalbumin-based diet (Grant et al, 2000). […] This was the average daily free intake observed for rats of the same age after oral infection with Salmonella enterica var. Enteritidis and around 70% of the free intake of this diet by non-infected animals. The rats were housed and managed in this manner from weaning to reduce environmental exposure to bacteria and cross-contamination post-weaning (Grant, 1996).
Twelve of the rats were given B. thetaiotaomicron (approximately 10^8 CFU) once daily from weaning (19d) through to completion of the study. At 34 days of age, six rats pre-treated with B. thetaiotaomicron and six controls were given, by gavage, a single dose of 0.8 ml of Salmonella serovar Enteritidis S1400 culture (approximately 10^9 CFU). The remaining rats were given the equivalent amount of culture medium. All rats were returned to their cages and fed lactalbumin-based diet (7 g rat^−1 day^−1) for a further 6 days. On the final day, the rats were fed 2 g of diet and were killed by halothane (Rhone Merieux, Essex, UK) overdose and exsanguination exactly two hours later. The abdomen was opened and tissues were aseptically removed. […]
DNA, RNA, protein were determined as before by the diphenylamine, orcinol and modified Lowry methods (Grant et al, 2000). […]

[11] = tested on: Myeloperoxidase (MPO); assay: Myeloperoxidase (MPO) activity in rat tissue; format: in vivo, Hooded Lister rats; conditions: 6d post-infection, mean ± SD, n = 6
Experimental: Tissue samples were homogenised (1:80 w/v) in ice-cold 5 mM potassium phosphate buffer pH 6.0 using a Janke-Kunkel Ultra-Turrax T25 tissue homogeniser at 20,000 rev min^−1 for 30 seconds and centrifuged (3000 g×30 min, 4° C.). The pellet (1:20 w/v) was sonicated (3×5 sec) in ice-cold 0.5M potassium phosphate pH 6.0 containing hexadecyltrimethyl-ammonium bromide (HETAB, 5 g/l) and ethylenediaminetetraacetic acid (EDTA, 3.72 g/1), left on ice for 30 min and centrifuged (3000 g×30 min, 4° C.) [Stucchi et al, 2000]. The supernatant was frozen until assayed. Myeloperoxidase (MPO) activity was determined by monitoring H2O2 dependent oxidation of 3,3′,5,5′-tetramethylbenzidine (TMB, Dynex Technologies, Ashford, UK) in 50 mM potassium phosphate buffer pH 6.0 (Zimmerman and Granger, 1990). Absorbance at 450 nm was measured after termination of the reaction with 0.18M H2SO4. Human myeloperoxidase (Calbiochem, UK) was used as a standard and values were expressed as MPO equivalents.

[12] = tested on: Immunoreactive MPO; assay: Immunoreactive MPO in intestinal contents or faeces (competitive ELISA); format: in vivo, Hooded Lister rats; conditions: during 6d post-infection, mean ± SD, n = 6
Experimental: Immunoreactive MPO in intestinal contents or faeces was determined by a competitive ELISA method. Microtiter plates (Immulon 4, Dynex Technologies, Ashford, UK) were coated [10 ng/well] with human myeloperoxidase in 10 mM phosphate buffered saline pH 7.4 [PBS] overnight at 4° C. After washing [PBS containing Tween-20 (1 ml/l], plates were blocked with PBS containing bovine serum albumin (BSA, 10 g/l) for 1 hour at room temperature. Plates were washed and samples or standards added [50 μl/well] and serially diluted in PBS containing BSA (1 g/l), Tween-20 (1 ml/l) and leupeptin (1 mg/l). Rabbit anti-human myeloperoxidase antibody [Calbiochem, UK, 50 μl/well of 1:4000 dilution] was also added. The plates were incubated for 1 hour, washed and then reacted for 1 hour with biotinylated anti-rabbit IgG followed by Extravidin/peroxidase (EXTRA-3 kit, Sigma-Aldrich, Poole, UK). After washing, TMB reagent (7 μl/well) was added and incubated in the dark for up to 2 hours. The reaction was stopped by addition (50 μl/well) of 0.18M H2SO4 and the absorbance read at 450 nm. Values were expressed as immunoreactive MPO equivalents.

[13] = tested on: leukocyte-elastase; assay: Elastase in faeces or intestine contents; format: in vivo, Hooded Lister rats; conditions: mean ± SD, n = 6
Experimental: Freeze dried faeces or intestine contents were extracted (1:10 w/v) in ice-cold 0.5M potassium phosphate pH 6.0 containing HETAB, EDTA and NaN3 (1 g/l), left on ice for 30 min, centrifuged (3000 g, 30 min, 4° C.) and the supernatants were frozen.
Sample or leukocyte-elastase (Sigma-Aldrich, Poole, UK) was serially diluted in 0.2M Tris HCl pH 8.0 containing 1 M NaCl and leupeptin (1 mg/l) on a microtiter plate. Substrate (N-succinyl-ala-ala-val-p-nitroanilide, 0.2 g/l, Sigma-Aldrich, Poole, UK) was added and the absorbance at 405 nm monitored immediately and at intervals up to 20 hours during incubation at 37° C. Values were expressed as leukocyte-elastase equivalents.

[14] = Skeletal (gastrocnemius) muscle accretion in rats; format: in vivo, Hooded Lister rats; conditions: 6 d post-infection
Experimental: Gastrocnemius muscle is taken as representative of skeletal muscle and total skeletal muscle in young Hooded-Lister rats as approximately 47 times the weight of the gastrocnemius muscle (Bardocz et al, 1996). Initial weight of gastrocnemius muscles 804±10 mg wet weight [194±7 mg dry weight] per 100 g initial fresh body weight.
Further pieces of jejunum and ileum (15-25 cm from the pylorus and 15-25 cm from the ileo-caecal junction respectively) were collected and frozen in liquid nitrogen for biochemical analysis, as was the remaining small intestine tissue (˜40 cm), liver, spleen, kidney, thymus, lungs, heart and gastrocnemius hind-limb muscles. These were weighed, freeze-dried and reweighed.

[15] = tested on: IL-8; assay: IL-8 protein in culture supernatants (ELISA); conditions: co-culture with S. enteritidis over 4 h (S. enteritidis alone 400 pg/ml)
[16] = tested on: S. enteritidis; assay: S. enteritidis infection of minimal flora rats, MPO in ileal mucosa; conditions: 10^8 cfu B. thetaiotaomicron in jelly for 19 days, then 10^8 S. enteritidis, 6 days post infection, P<0.001
[17] = tested on: human PMNs; assay: Transepithelial migration of PMN through Caco-2 monolayer (MPO assay); conditions: Caco-2 Transwell, S. enteritidis, MPO readout
[18] = 800 nM for 4 hours, cells treated with S. enteritidis alone

Compound: CCCCC/C=C/C=C1/C(=O)C=C[C@@H]1C/C=C\CCCC(=O)O [15d-PGJ2, 15-deoxy-Δ^12,14-prostaglandin J2, reference compound]
- Activation of inflammatory cytokine expression (TNF-α, IL-8, COX-2) by S. enteritidis ([1]; 10^8 S. enteritidis plus drug 10-30 μM, 2 hours, Northern): attenuated
- PPARγ mRNA after PPAR ligand ([2]; Caco-2 cells, 10^8 S. enteritidis plus 30 μM ligand): decreased

Compound: CCC(=C/[C@H](C)C/C=C/C(C)=C/[C@@H](C)C(=O)[C@@H](C)[C@H](O)[C@@H](C)C/C(C)=C/C(=O)O)/C=C/[C@@H]1OC(=O)C=C[C@@H]1C [LMB, leptomycin B]
- RelA in nuclei after inhibition of CRM-1-dependent nuclear export ([3]; cells co-cultured with S. enteritidis and B. thetaiotaomicron): caused an accumulation of RelA in nuclei
- Nucleocytoplasmic shuttling of PPARγ induced by co-culture of S. enteritidis and B. thetaiotaomicron ([4]; Caco-2 cells, inhibitor treatment): not blocked

Compound: CC(/C=C/C(=O)NO)=C\[C@@H](C)C(=O)c1ccc(N(C)C)cc1 [TSA, trichostatin A]
- p65 nuclear accumulation after HDAC inhibition [3, 18]: partial p65 accumulation
- Exit of PPARγ to cytosol after HDAC inhibition [4, 18]: accelerated exit of PPARγ to cytosol
- PPARγ localisation in S. enteritidis-treated Caco-2 cells with inhibitor ([4]; S. enteritidis-treated Caco-2 cells): induce punctate cytosolic labeling and export of PPARγ from the nucleus

Compound: Bacteroides thetaiotaomicron [BT]
- IL-10 gene expression [1]: not affected
- Induction of TNF-α, IL-8, MIP-2α and COX-2 expression following S. enteritidis exposure ([1]; 10^8 S. enteritidis with 10^9 commensal bacteria, 2 hours): attenuated
- Translocation of RelA to the nucleus ([3]; Caco-2 cells, 10^8 S. enteritidis, 2 hours): abolish the translocation of RelA to the nucleus
- RelA response (supershift EMSA) [5]: inhibited
- mRNA for PPARα and PPARγ ([2]; Caco-2 cells exposed to S. enteritidis and B. thetaiotaomicron): decreased
- S. enteritidis induced NF-κB luciferase response, PPARγ dominant negative (DN) transfected cells [6]: not
- S. enteritidis induced NF-κB luciferase response, PPARγ wild type cells (luciferase alone) ([6]; P<0.028): attenuated
- p38 phosphorylation induced by Salmonella [7]: not modified
- HDAC3 association with RelA ([8]; Caco-2 cells co-cultured with S. enteritidis and B. thetaiotaomicron, 2 hours): promoted
- Co-purification of RelA with PPARγ ([8]; cells treated with S. enteritidis in the presence of B. thetaiotaomicron): co-purification of RelA
- Time the bacterium remained viable in jelly [9]: at least 6 hours
- Water content of small intestine ([10]; 6 d post-infection): 745 ± 24 mg/g
- Weight of Gastrocnemius muscles ([10]; 6d post-infection, mean ± SD, n = 6): 834 ± 22^a mg wet weight/100 g fresh body weight
- Adverse effect on gut or systemic metabolism ([10]; specific pathogen-free rats, daily B. thetaiotaomicron from weaning): no indications that B. thetaiotaomicron adversely affected gut or systemic metabolism
- Ileum (20 cm) MPO [11]: 33.1 ± 6.2^a μg
- Jejunum (20 cm) MPO [11]: 29.3 ± 5.2 µg
- Faeces MPO [12]: 2.6 ± 1.0^a μg/d
- Intestinal contents Elastase ([13]; 6d post-infection): 210 ± 0.38^a μg
- Faeces Elastase ([13]; during 6d post-infection): 5.7 ± 1.0^a μg/d
- Gastrocnemius muscle accretion rate, dry weight [14]: 4.2±1.0 mg dry weight per day
- Gastrocnemius muscle accretion rate, wet weight [14]: 17.0±4.2 mg wet weight per day
- IL-8 protein in culture supernatants [15]: 230 pg/mL
- Level of MPO in the ileal mucosa [16]: significantly attenuated
- PMN recruitment in vitro [17]: confirmed the anti-inflammatory activity
- Cellular distribution of PPARγ ([4]; Caco-2 cells, co-culture of S. enteritidis with B. thetaiotaomicron): redistributed to the cytosol
